Reference: the NIST ThermoML archive (doi:10.1007/s10765-014-1730-1)

Details: Vibrating tube method; for specific volume: Gas; for mass density: Liquid

F/C=C\C(F)(F)F [(Z)-1,3,3,3-tetrafluoro-1-propene]
Details | mass density [kg/m3] | specific volume [m3/kg]
328.15 K, 202.5 kPa | – | 0.111
328.15 K, 209.8 kPa | – | 0.107
328.15 K, 232.5 kPa | – | 0.095
328.15 K, 370.9 kPa | – | 0.057
330.15 K, 287.2 kPa | – | 0.076
333.15 K, 90.7 kPa | – | 0.26
333.15 K, 126.2 kPa | – | 0.185
333.15 K, 206.1 kPa | – | 0.111
333.15 K, 213.5 kPa | – | 0.107
333.15 K, 236.7 kPa | – | 0.096
333.15 K, 378.4 kPa | – | 0.057
333.15 K, 30992 kPa | 1237.9 | –
333.15 K, 31993 kPa | 1240.4 | –
333.16 K, 3769 kPa | 1141.2 | –
333.16 K, 4787 kPa | 1146.4 | –
333.16 K, 5795 kPa | 1151.4 | –
333.16 K, 6804 kPa | 1156.2 | –
333.16 K, 7816 kPa | 1160.8 | –
333.16 K, 8825 kPa | 1165.2 | –
333.16 K, 9828 kPa | 1169.5 | –
333.16 K, 10837 kPa | 1173.6 | –
333.16 K, 11848 kPa | 1177.7 | –
333.16 K, 12859 kPa | 1181.6 | –
333.16 K, 13868 kPa | 1185.4 | –
333.16 K, 15876 kPa | 1192.7 | –
333.16 K, 16881 kPa | 1196.2 | –
333.16 K, 17896 kPa | 1199.7 | –
333.16 K, 18911 kPa | 1203 | –
333.16 K, 19925 kPa | 1206.3 | –
333.16 K, 20935 kPa | 1209.5 | –
333.16 K, 21937 kPa | 1212.6 | –
333.16 K, 23957 kPa | 1218.6 | –
333.16 K, 24963 kPa | 1221.5 | –
333.16 K, 25970 kPa | 1224.4 | –
333.16 K, 26975 kPa | 1227.2 | –
333.16 K, 27976 kPa | 1229.9 | –
333.16 K, 28983 kPa | 1232.6 | –
333.16 K, 29987 kPa | 1235.2 | –
333.16 K, 32999 kPa | 1243 | –
333.16 K, 34003 kPa | 1245.5 | –
333.17 K, 574 kPa | 1123.1 | –
333.17 K, 754 kPa | 1124.2 | –
333.17 K, 1756 kPa | 1130.2 | –
333.17 K, 2756 kPa | 1135.8 | –
333.17 K, 14875 kPa | 1189.1 | –
333.17 K, 22950 kPa | 1215.6 | –
335.15 K, 292.6 kPa | – | 0.077
338.15 K, 92.1 kPa | – | 0.26
338.15 K, 128.2 kPa | – | 0.185
338.15 K, 209.7 kPa | – | 0.111
338.15 K, 217.2 kPa | – | 0.107
338.15 K, 240.9 kPa | – | 0.096
338.15 K, 385.9 kPa | – | 0.057
340.15 K, 298 kPa | – | 0.077
343.14 K, 680 kPa | 1090.7 | –
343.14 K, 761 kPa | 1091.4 | –
343.14 K, 1766 kPa | 1098.6 | –
343.14 K, 2771 kPa | 1105.3 | –
343.14 K, 3798 kPa | 1111.8 | –
343.14 K, 4828 kPa | 1117.9 | –
343.14 K, 5833 kPa | 1123.5 | –
343.14 K, 6839 kPa | 1129 | –
343.14 K, 7846 kPa | 1134.2 | –
343.14 K, 8850 kPa | 1139.2 | –
343.14 K, 9856 kPa | 1144 | –
343.14 K, 10867 kPa | 1148.6 | –
343.14 K, 11874 kPa | 1153.1 | –
343.14 K, 12884 kPa | 1157.5 | –
343.14 K, 13894 kPa | 1161.7 | –
343.14 K, 14898 kPa | 1165.7 | –
343.14 K, 15909 kPa | 1169.7 | –
343.14 K, 16918 kPa | 1173.5 | –
343.14 K, 17921 kPa | 1177.2 | –
343.14 K, 18924 kPa | 1180.9 | –
343.14 K, 19929 kPa | 1184.4 | –
343.14 K, 20931 kPa | 1187.8 | –
343.14 K, 21941 kPa | 1191.3 | –
343.14 K, 22943 kPa | 1194.6 | –
343.14 K, 24955 kPa | 1201 | –
343.14 K, 25963 kPa | 1204 | –
343.14 K, 26970 kPa | 1207.1 | –
343.14 K, 27977 kPa | 1210 | –
343.14 K, 28983 kPa | 1212.9 | –
343.14 K, 29990 kPa | 1215.8 | –
343.14 K, 30998 kPa | 1218.7 | –
343.14 K, 32004 kPa | 1221.4 | –
343.14 K, 34007 kPa | 1226.7 | –
343.15 K, 93.6 kPa | – | 0.26
343.15 K, 130.3 kPa | – | 0.185
343.15 K, 213.3 kPa | – | 0.111
343.15 K, 220.9 kPa | – | 0.107
343.15 K, 245.1 kPa | – | 0.096
343.15 K, 393.2 kPa | – | 0.057
343.15 K, 23946 kPa | 1197.8 | –
343.15 K, 33006 kPa | 1224.1 | –
345.15 K, 303.3 kPa | – | 0.077
348.15 K, 95 kPa | – | 0.26
348.15 K, 132.4 kPa | – | 0.185
348.15 K, 216.8 kPa | – | 0.111
348.15 K, 224.6 kPa | – | 0.107
348.15 K, 249.2 kPa | – | 0.096
348.15 K, 400.6 kPa | – | 0.057
350.15 K, 308.6 kPa | – | 0.077
353.14 K, 33995 kPa | 1208 | –
353.15 K, 96.4 kPa | – | 0.26
353.15 K, 134.4 kPa | – | 0.185
353.15 K, 220.3 kPa | – | 0.112
353.15 K, 228.3 kPa | – | 0.107
353.15 K, 253.3 kPa | – | 0.096
353.15 K, 407.8 kPa | – | 0.057
353.15 K, 3719 kPa | 1080.1 | –
353.15 K, 14840 kPa | 1141.7 | –
353.15 K, 15847 kPa | 1146.1 | –
353.15 K, 16854 kPa | 1150.3 | –
353.15 K, 18882 kPa | 1158.4 | –
353.15 K, 19886 kPa | 1162.3 | –
353.15 K, 20899 kPa | 1166.1 | –
353.15 K, 22916 kPa | 1173.4 | –
353.15 K, 24928 kPa | 1180.3 | –
353.15 K, 25940 kPa | 1183.7 | –
353.15 K, 26948 kPa | 1186.9 | –
353.15 K, 27955 kPa | 1190.1 | –
353.15 K, 28958 kPa | 1193.2 | –
353.15 K, 29961 kPa | 1196.3 | –
353.15 K, 30974 kPa | 1199.3 | –
353.15 K, 31977 kPa | 1202.3 | –
353.15 K, 32988 kPa | 1205.2 | –
353.16 K, 926 kPa | 1057.5 | –
353.16 K, 1696 kPa | 1064.4 | –
353.16 K, 2698 kPa | 1072.4 | –
353.16 K, 4742 kPa | 1087.3 | –
353.16 K, 5750 kPa | 1093.9 | –
353.16 K, 6761 kPa | 1100.2 | –
353.16 K, 7770 kPa | 1106.2 | –
353.16 K, 8771 kPa | 1111.9 | –
353.16 K, 9787 kPa | 1117.4 | –
353.16 K, 10798 kPa | 1122.6 | –
353.16 K, 11809 kPa | 1127.7 | –
353.16 K, 12819 kPa | 1132.5 | –
353.16 K, 13828 kPa | 1137.2 | –
353.16 K, 17868 kPa | 1154.4 | –
353.16 K, 21904 kPa | 1169.8 | –
353.16 K, 23917 kPa | 1176.9 | –
355.15 K, 313.8 kPa | – | 0.077
358.15 K, 97.9 kPa | – | 0.26
358.15 K, 136.4 kPa | – | 0.186
358.15 K, 223.9 kPa | – | 0.112
358.15 K, 232 kPa | – | 0.107
358.15 K, 257.4 kPa | – | 0.096
358.15 K, 415 kPa | – | 0.057
360.15 K, 319.1 kPa | – | 0.077
363.13 K, 14901 kPa | 1116.7 | –
363.14 K, 1456 kPa | 1023.9 | –
363.14 K, 1771 kPa | 1027.2 | –
363.14 K, 2776 kPa | 1037.2 | –
363.14 K, 3803 kPa | 1046.4 | –
363.14 K, 4829 kPa | 1055 | –
363.14 K, 5830 kPa | 1062.7 | –
363.14 K, 6835 kPa | 1070 | –
363.14 K, 7849 kPa | 1076.9 | –
363.14 K, 8855 kPa | 1083.4 | –
363.14 K, 9860 kPa | 1089.5 | –
363.14 K, 10872 kPa | 1095.5 | –
363.14 K, 11879 kPa | 1101.1 | –
363.14 K, 12892 kPa | 1106.5 | –
363.14 K, 13892 kPa | 1111.7 | –
363.14 K, 15912 kPa | 1121.5 | –
363.14 K, 16917 kPa | 1126.2 | –
363.14 K, 17931 kPa | 1130.7 | –
363.14 K, 18936 kPa | 1135 | –
363.14 K, 19943 kPa | 1139.3 | –
363.14 K, 20949 kPa | 1143.4 | –
363.14 K, 21954 kPa | 1147.4 | –
363.14 K, 22956 kPa | 1151.2 | –
363.14 K, 23961 kPa | 1155 | –
363.14 K, 25973 kPa | 1162.3 | –
363.14 K, 26975 kPa | 1165.8 | –
363.14 K, 27982 kPa | 1169.3 | –
363.14 K, 29991 kPa | 1175.9 | –
363.14 K, 31998 kPa | 1182.3 | –
363.15 K, 99.3 kPa | – | 0.26
363.15 K, 138.4 kPa | – | 0.186
363.15 K, 227.4 kPa | – | 0.112
363.15 K, 235.7 kPa | – | 0.107
363.15 K, 261.4 kPa | – | 0.096
363.15 K, 422.2 kPa | – | 0.057
363.15 K, 24969 kPa | 1158.7 | –
363.15 K, 28984 kPa | 1172.6 | –
363.15 K, 30992 kPa | 1179.1 | –
363.15 K, 33009 kPa | 1185.4 | –
363.15 K, 34010 kPa | 1188.4 | –
365.15 K, 324.3 kPa | – | 0.077
368.15 K, 100.7 kPa | – | 0.26
368.15 K, 140.5 kPa | – | 0.186
368.15 K, 231 kPa | – | 0.112
368.15 K, 239.3 kPa | – | 0.107
368.15 K, 265.5 kPa | – | 0.096
368.15 K, 429.3 kPa | – | 0.057
370.15 K, 329.4 kPa | – | 0.077
373.15 K, 102.2 kPa | – | 0.26
373.15 K, 142.5 kPa | – | 0.186
373.15 K, 234.6 kPa | – | 0.112
373.15 K, 242.9 kPa | – | 0.107
373.15 K, 269.6 kPa | – | 0.096
373.15 K, 436.3 kPa | – | 0.057
375.15 K, 334.6 kPa | – | 0.077
